The values that follow come from patent publication US20230399312A1, “SUBSTITUTED PYRIMIDINES AND METHODS OF USE” (THERAVANCE BIOPHARMA R&D IP, LLC, priority 2020, published 2023).

Assay [1] concerns the target T1, recombinant human ALK5 (TGF-βR1) protein (Homo sapiens, UniProt P36897).
T1 construct: purchased Life Technologies PR9075A
T1 sequence (P36897 34-503): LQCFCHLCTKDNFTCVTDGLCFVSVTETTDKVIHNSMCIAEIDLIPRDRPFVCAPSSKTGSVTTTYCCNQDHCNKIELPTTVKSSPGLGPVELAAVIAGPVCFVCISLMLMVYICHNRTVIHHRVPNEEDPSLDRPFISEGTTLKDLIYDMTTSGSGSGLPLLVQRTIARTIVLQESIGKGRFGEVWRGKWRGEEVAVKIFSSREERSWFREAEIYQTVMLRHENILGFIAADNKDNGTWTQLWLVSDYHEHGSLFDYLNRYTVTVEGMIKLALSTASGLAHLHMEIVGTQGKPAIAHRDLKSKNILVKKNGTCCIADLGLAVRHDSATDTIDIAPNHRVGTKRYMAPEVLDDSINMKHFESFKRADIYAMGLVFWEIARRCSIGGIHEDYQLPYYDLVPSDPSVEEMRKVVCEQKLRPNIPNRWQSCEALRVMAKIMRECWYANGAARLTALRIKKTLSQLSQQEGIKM
Put plainly: Biochemical ALK5 (TGF-βR1) assay to measure pKi (LANCE Ultra ULight kinase assay). To be noted: apparent pKi, converted from pIC50 by Cheng-Prusoff. In short, it runs like this: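 Europium TR-FRET kinase assay: the enzyme is exposed to compound for 60 min at room temperature, and reaction with ATP runs 60 min at 37 °C. Percent inhibition relative to DMSO and SD-208 controls gives pIC50, which is converted to pKi.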

Assay [2] concerns TGF-β-stimulated SMAD3 phosphorylation in BEAS-2B cells. Put plainly: Cellular ALK5 potency assay, inhibition of TGF-β stimulated pSMAD3 formation in BEAS-2B cells. The note with it: Homo sapiens, pSMAD3, TGF-β 10 ng/mL, read-out: BEAS2B pIC50 (converted). The class given is cell-based. The gist of the method: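 Potency is expressed as pIC50, based on dose-dependent reduction of TGF-β-induced pSMAD3 AlphaLISA signal relative to stimulated cells without compound. BEAS-2B cells received compound 1 h before a 30 min, 10 ng/mL TGF-β challenge.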

Molecules are shown by their SMILES.

In the case of `Cc1cccc(-c2nccc(Nc3ccnc(Nc4ccc(F)c(CN5CCN(C)CC5)c4)n3)n2)n1` [Compound 244, N2-[4-fluoro-3-[(4-methylpiperazin-1-yl)methyl]phenyl]-N4-[2-(6-methyl-2-pyridyl)pyrimidin-4-yl]pyrimidine-2,4-diamine], the Ki in assay [1] was 0.0398 to 0.316 nM. For the same compound, the IC50 in assay [2] is 25.1 to 158 nM.
In the case of `Cc1cccc(-c2nccc(Nc3ccnc(Nc4ncc(C(=O)OC[C@H]5CCCN5)s4)n3)n2)n1` [Compound 592, [(2R)-pyrrolidin-2-yl]methyl 2-[[4-[[2-(6-methyl-2-pyridyl)pyrimidin-4-yl]amino]pyrimidin-2-yl]amino]thiazole-5-carboxylate], in assay [1], the Ki was 3.98 to 31.6 nM. In addition, in assay [2], the IC50 is 25.1 to 158 nM.
As for `Cc1cccc(-c2nccc(Nc3ccnc(Nc4cccc(NC(=O)NC5CCNC5)c4)n3)n2)n1` (stereo not shown) [Compound 168, 1-[3-[[4-[[2-(6-methyl-2-pyridyl)pyrimidin-4-yl]amino]pyrimidin-2-yl]amino]phenyl]-3-pyrrolidin-3-yl-urea], the Ki in assay [1] is 0.0398 to 0.316 nM. Besides, the IC50 in assay [2] is 25.1 to 158 nM.
Turning to `COC(=O)[C@@H]1CN(c2ccc(Nc3nccc(Nc4ccnc(-c5cccc(C)n5)n4)n3)cc2)CCN1` [Compound 307, methyl (2S)-4-[4-[[4-[[2-(6-methyl-2-pyridyl)pyrimidin-4-yl]amino]pyrimidin-2-yl]amino]phenyl]piperazine-2-carboxylate], in assay [1], the Ki is 0.0398 to 0.316 nM. For the same compound, the IC50 in assay [2] is 25.1 to 158 nM.
Turning to `Cc1cccc(-c2nccc(Nc3ccnc(Nc4nc(C(=O)OC[C@H]5CCCCN5)cs4)n3)n2)n1` [Compound 586, [(2R)-2-piperidyl]methyl 2-[[4-[[2-(6-methyl-2-pyridyl)pyrimidin-4-yl]amino]pyrimidin-2-yl]amino]thiazole-4-carboxylate], the Ki in assay [1] is 0.398 to 3.16 nM. The IC50 in assay [2] was 25.1 to 158 nM.
For the compound `Cc1cccc(-c2nccc(Nc3ccnc(Nc4ccc(S(=O)(=O)N5CCOCC5)cc4)n3)n2)n1` [Compound 407, N4-[2-(6-methyl-2-pyridyl)pyrimidin-4-yl]-N2-(4-morpholinosulfonylphenyl) pyrimidine-2,4-diamine], the Ki in assay [1] was 0.0398 to 0.316 nM. The IC50 in assay [2] is 25.1 to 158 nM.
`Cc1cccc(-c2nccc(Nc3ccnc(Nc4ccc(N(C)[C@H]5CCNC5)cc4)n3)n2)n1` [Compound 116, N4-[2-(6-methyl-2-pyridyl)pyrimidin-4-yl]-N2-[4-[methyl-[(3S)-pyrrolidin-3-yl]amino]phenyl]pyrimidine-2,4-diamine]: in assay [1], the Ki was 0.0398 to 0.316 nM. Further, the IC50 in assay [2] was 25.1 to 158 nM.
As for `Cc1cccc(-c2nccc(Nc3ccnc(Nc4cccc(CN5C[C@@H](C)N[C@@H](C)C5)c4)n3)n2)n1` [Compound 519, N4-[2-(6-methyl-2-pyridyl)pyrimidin-4-yl]-N2-[3-[[rac-(3R,5S)-3,5-dimethylpiperazin-1-yl]methyl]phenyl]pyrimidine-2,4-diamine], the Ki in assay [1] was 0.0398 to 0.316 nM. For the same compound, the IC50 in assay [2] is 25.1 to 158 nM.
Consider `Cc1cccc(-c2nccc(Nc3ccnc(Nc4ccc(N5CCCC(C(=O)OCC6CNC6)C5)cc4)n3)n2)n1` (stereo not shown) [Compound 433, azetidin-3-ylmethyl 1-[4-[[4-[[2-(6-methyl-2-pyridyl)pyrimidin-4-yl]amino]pyrimidin-2-yl]amino]phenyl]piperidine-3-carboxylate], for which the Ki in assay [1] was 0.0398 to 0.316 nM. Further, the IC50 in assay [2] is 25.1 to 158 nM.
As to `Cc1cccc(-c2nccc(Nc3ccnc(Nc4ccc(NS(=O)(=O)C5CCNCC5)cc4)n3)n2)n1` [Compound 229, N-[4-[[4-[[2-(6-methyl-2-pyridyl)pyrimidin-4-yl]amino]pyrimidin-2-yl]amino]phenyl]piperidine-4-sulfonamide], the Ki in assay [1] was 0.0398 to 0.316 nM. The IC50 in assay [2] was 25.1 to 158 nM.
On to `Cc1cccc(-c2nc(Nc3ccnc(Nc4ccc(C(=O)OCC5CNC5)cc4)n3)c3cccn3n2)n1` [Compound 1039, azetidin-3-ylmethyl 4-[[4-[[2-(6-methyl-2-pyridyl)pyrrolo[2,1-f][1,2,4]triazin-4-yl]amino]pyrimidin-2-yl]amino]benzoate], for which the Ki in assay [1] was 0.0398 to 0.316 nM. For the same compound, the IC50 in assay [2] is 25.1 to 158 nM.
The corresponding values for `Cc1cccc(-c2nccc(Nc3ccnc(Nc4ccc(NC(=O)C5CCNCC5)cc4)n3)n2)n1` [Compound 14, N-(4-((4-((2-(6-methylpyridin-2-yl)pyrimidin-4-yl)amino)pyrimidin-2-yl)amino)phenyl)piperidine-4-carboxamide] are 0.0398 to 0.316 nM and no more than 20 nM.
The corresponding values for `Cc1cccc(-c2nccc(Nc3ccnc(Nc4cc(C(=O)OCCN5CCNCC5)ccn4)n3)n2)n1` [Compound 624, 2-piperazin-1-ylethyl 2-[[4-[[2-(6-methyl-2-pyridyl)pyrimidin-4-yl]amino]pyrimidin-2-yl]amino]pyridine-4-carboxylate] are 3.98 to 31.6 nM and 200 to 1260 nM.
For `Cc1cccc(-c2nccc(Nc3ccnc(Nc4ccc(N5CCC(N)CC5)c(F)c4)n3)n2)n1` [Compound 343, N2-[4-(4-amino-1-piperidyl)-3-fluoro-phenyl]-N4-[2-(6-methyl-2-pyridyl)pyrimidin-4-yl]pyrimidine-2,4-diamine], the Ki in assay [1] is no more than 0.0316 nM. The IC50 in assay [2] was 25.1 to 158 nM.
Turning to `Cc1cccc(-c2nccc(Nc3ccnc(Nc4ccc(N5CCC(C(=O)OC6CNC6)CC5)cc4)n3)n2)n1` [Compound 220, azetidin-3-yl 1-[4-[[4-[[2-(6-methyl-2-pyridyl)pyrimidin-4-yl]amino]pyrimidin-2-yl]amino]phenyl]piperidine-4-carboxylate], the Ki in assay [1] is 0.0398 to 0.316 nM. The IC50 in assay [2] is 25.1 to 158 nM.
On the same counts, the results for `Cc1cccc(-c2nccc(Nc3ccnc(Nc4ccc(N5CCN(C6CNC6)CC5)cc4)n3)n2)n1` [Compound 473, N2-[4-[4-(azetidin-3-yl)piperazin-1-yl]phenyl]-N4-[2-(6-methyl-2-pyridyl)pyrimidin-4-yl]pyrimidine-2,4-diamine] are 0.0398 to 0.316 nM and 200 to 1260 nM.
`Cc1cccc(-c2nccc(Nc3ccnc(Nc4ccc(-c5c(C)noc5C)cc4)n3)n2)n1` [Compound 469, N2-[4-(3,5-dimethylisoxazol-4-yl)phenyl]-N4-[2-(6-methyl-2-pyridyl)pyrimidin-4-yl]pyrimidine-2,4-diamine]: the Ki in assay [1] is 0.398 to 3.16 nM. The IC50 in assay [2] is 25.1 to 158 nM.
`Cc1cccc(-c2nccc(Nc3ccnc(Nc4ccc(C(=O)OC5CCNCC5)nc4)n3)n2)n1` [Compound 561, 4-piperidyl 5-[[4-[[2-(6-methyl-2-pyridyl)pyrimidin-4-yl]amino]pyrimidin-2-yl]amino]pyridine-2-carboxylate]: the Ki in assay [1] was 0.0398 to 0.316 nM. In addition, the IC50 in assay [2] was 25.1 to 158 nM.
Regarding `Cc1cccc(-c2nccc(Nc3ccnc(Nc4ccc5c(c4)CCNCC5)n3)n2)n1` [Compound 160, N4-[2-(6-methyl-2-pyridyl)pyrimidin-4-yl]-N2-(2,3,4,5-tetrahydro-1H-3-benzazepin-7-yl)pyrimidine-2,4-diamine], the Ki in assay [1] is 0.0398 to 0.316 nM. In assay [2], the IC50 was 25.1 to 158 nM.
Consider `Cc1cccc(-c2nccc(Nc3ccnc(Nc4ccc(C(=O)O[C@H](C)C5CCNCC5)nc4)n3)n2)n1` [Compound 562, [(1R)-1-(4-piperidyl)ethyl] 5-[[4-[[2-(6-methyl-2-pyridyl)pyrimidin-4-yl]amino]pyrimidin-2-yl]amino]pyridine-2-carboxylate], for which, in assay [1], the Ki is 0.0398 to 0.316 nM. The IC50 in assay [2] was 200 to 1260 nM.
